The compounds below were run on T1R1/T1R3 umami receptor (assay: In vitro screening of amino acids for ability to activate the T1R1/T1R3 receptor in the presence of 0.2 mM IMP). Settings: FIG. 10.
Format: cell-based

SMILES | activation of the T1R1/T1R3 umami receptor
O=C(O)[C@@H]1C[C@@H](O)CN1 [hydroxyproline] | do not activate
N=C(N)NCCC[C@H](N)C(=O)O [arginine] | do not activate
NCCCC[C@H](N)C(=O)O [lysine] | do not activate
N[C@@H](CSSC[C@H](N)C(=O)O)C(=O)O [cystine] | do not activate
N[C@@H](CCC(=O)O)C(=O)O [glutamic acid] | do not activate
N[C@@H](CC(=O)O)C(=O)O [aspartic acid] | do not activate

Further lines, results first:

activation of the T1R1/T1R3 umami receptor | SMILES
do not activate | C[C@@H](O)[C@H](N)C(=O)O [threonine]
do not activate | NC(=O)CC[C@H](N)C(=O)O [glutamine]
do not activate | NCCS(=O)(=O)O [taurine]
do not activate | NCCC[C@H](N)C(=O)O [ornithine]
do not activate | CC[C@H](C)[C@H](N)C(=O)O [isoleucine]
do not activate | O=C(O)[C@@H]1CCCN1 [proline]
do not activate | CC(C)[C@H](N)C(=O)O [valine]
